Results published in patent US20050214738A1, “Conditional allele system” (priority 2003, published 2005).

Tests used:
[1] = biological target: T1, FRB* (Homo sapiens, UniProt P42345+P62942, K2095P/T2098L/W2101F); experiment: SeAP reporter assay, dimerization of FRB*-VP16 to FKBP3-GAL4DBD in COS-1 cells; type: cell-based
T1 construct: The minimal FRB domain comprises amino acids 2025-2114 of human mTor; expressed in transfected cells; host or cells: COS-1 cells
Source text: Transcription activation by recruitment of chimeric transcriptional activation and DNA binding domains is described. COS-1 cells were electroporated with […] each of the following expression plasmids (Ho, S. N., Biggar, S. R., Spencer, D. M., Schreiber, S. L., and Crabtree, G. R. “Dimeric ligands define a role for transcriptional activation domains in reinitiation.” (1996) Nature 382, 822-826): pG5IL2SX (drives transcription of bacterial secreted alkaline phosphatase (SeAP) through GAL4 DNA binding […] elements), pBJ5-GF3E (which expresses the GAL4 DNA binding domain fused to three copies of human FKBP12), and pBJ5-FRBVP. (which expresses a FRB fusion with the Herpes Simplex Virus VP16 Activation domain) A FRB*-VP16 fusion protein which consists of modified FRB protein fused to the VP16 activation domain was also used selectively. Transfected cells were distributed equally to 96 well plates and were incubated at 37° C. for 24 to 36 hours before media was supplemented with drug in a dilution curve in which each point is represented in quadruplicate. Cells were incubated at 37° C. for an additional 24 hours followed by a 2-hour treatment at 65° C. to inactivate endogenous phosphatases. Each well was supplemented with 100μL of 1 mM methylumbelliferylphosphate dissolved in 2 M diethanolamine buffered to pH 10.0 with carbonate and incubated at 37° C. for 16 hours. Fluorescence was measured with a Fluoroscan (ICN) plate reader at 355 nm transmission and 455 nm emission using Deltasoft software.
Drug efficacy was determined in a three-plasmid transcriptional switch reporter assay. ˜106 COS1 cells were coelectroporated with 2 μg of the DNA binding construct pBJ5-Gal4-FKBP(3), 2 μg pBJ5-VP16 (or the relevant mutant FRB) and 2 μg of the Gal4-SeAP reporter. Electroporation details are available upon request. […] SeAP activity was measured by fluorescence with a Spectamax M2 fluorometer (Molecular Devices, Sunnyvale, Calif.) with transmission set at 355 nm and emmission set at 460 nm. Data was analysed with Softmax Pro (Molecular Devices), Microsoft Excel and Prism 3 (GraphPad Software).

[2] = biological target: T2, KTF (Homo sapiens, UniProt P42345+P62942, W2101F); experiment: SeAP transcriptional switch assay, FRB mutant KTF; type: cell-based
T2 construct: The minimal FRB domain comprises amino acids 2025-2114 of human mTor; expressed in transfected cells; host or cells: COS1 cells
Procedure: (§1) Drug efficacy was determined in a three-plasmid transcriptional switch reporter assay. ˜106 COS1 cells were coelectroporated with 2 μg of the DNA binding construct pBJ5-Gal4-FKBP(3), 2 μg pBJ5-VP16 (or the relevant mutant FRB) and 2 μg of the Gal4-SeAP reporter. Electroporation details are available upon request. Cells were immediately aliquoted to 2 or 3×96 well plates with flat bottoms. After 24 hours incubation media was supplemented with a rapalog in triplicate and in serial two fold dilutions. Following 24 hours further incubation, cells with media were wrapped carefully in plastic wrap and heated to 65° C. for two hours to inactivate endogenous phosphatases. 50 μL of media was transferred to a black 96 well plate (Costar 3915) and supplemented with 1 mM methylumbelliferrylphosphate (Sigma, St. Louis, Mo.) in 1M diethanolamine (pH 10.0 with carbonate). After 16 hours incubation at 37° C. SeAP activity was measured by fluorescence with a Spectamax M2 fluorometer (Molecular Devices, Sunnyvale, Calif.) with transmission set at 355 nm and emmission set at 460 nm. Data was analysed with Softmax Pro (Molecular Devices), Microsoft Excel and Prism 3 (GraphPad Software).

[3] = biological target: T3, mutant FRBs (Homo sapiens, UniProt P42345, K2095T/T2098L); experiment: SeAP transcriptional switch assay, panel of FRB mutants at 2095, 2098, 2101; type: cell-based; conditions: TLW
T3 construct: The minimal FRB domain comprises amino acids 2025-2114 of human mTor; expressed in transfected cells; host or cells: COS1 cells
Procedure: All FRB mutants were prepared by the Quikchange mutagenesis method (Stratagene) using protocols provided by the manufacturer. Briefly, PCR reactions containing the parent plasmid pBJ5-FRB-VP16-HA or pBJ5-FRB*-VP16-HA and overlapping oligonucleotides containing the relevant base changes were performed with Pfu polymerase (Stratagene, San Diego, Calif.). PCR reactions were digested with the methylation sensitive restriction endonuclease Dpn1 to eliminate the parent plasmid and the reaction was transformed in XL10-Gold Ultracompetent E. coli (Stratagene).
Electroporation details are available upon request. Cells were immediately aliquoted to 2 or 3×96 well plates with flat bottoms. […] Data was analysed with Softmax Pro (Molecular Devices), Microsoft Excel and Prism 3 (GraphPad Software).

[4] = biological target: T4, KLW (Homo sapiens, UniProt P42345+P62942, T2098L); experiment: SeAP transcriptional switch assay, FRB mutant KLW; type: cell-based
T4 construct: The minimal FRB domain comprises amino acids 2025-2114 of human mTor; expressed in transfected cells; host or cells: COS1 cells
Procedure: as §1

[5] = test system: T5, GSK-3βFRB* (K2095P/T2098L/W2101F); experiment: GSK-3β immunoprecipitation-kinase assay on MEF lysates; type: biochemical, mouse; conditions: treated versus untreated GSK-3βFRB*/FRB* MEFs
T5 construct: The minimal FRB domain comprises amino acids 2025-2114 of human mTor; endogenous in cells; host or cells: lysates of MEFs from GSK-3β^FRB* knock-in mice; immunoprecipitated with anti-GSK-3β

[6] = biological target: T6, GSK-3βFRB* (Homo sapiens, UniProt P42345+P62942, K2095P/T2098L/W2101F); experiment: as above; type: biochemical, mouse; conditions: treated GSK-3βFRB*/FRB* cells
T6 construct: The minimal FRB domain comprises amino acids 2025-2114 of human mTor; endogenous in cells; host or cells: lysates of MEFs from GSK-3β^FRB* knock-in mice; immunoprecipitated with anti-GSK-3β
T6 sequence (P42345 2025-2114 K2095P/T2098L/W2101F): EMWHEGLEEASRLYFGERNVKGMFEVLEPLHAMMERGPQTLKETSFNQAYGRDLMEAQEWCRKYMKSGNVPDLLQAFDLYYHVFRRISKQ
T6 sequence (P62942 whole entry, the tested form may be a part): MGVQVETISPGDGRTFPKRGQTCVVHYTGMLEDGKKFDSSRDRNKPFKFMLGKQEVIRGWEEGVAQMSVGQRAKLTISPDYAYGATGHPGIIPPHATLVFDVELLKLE

T4 sequence (P42345 2025-2114 T2098L): as the sequence (P42345 2025-2114 K2095P/T2098L/W2101F) above, with P71K, F77W counted along it
T4 sequence (P62942 whole entry, the tested form may be a part): as the sequence (P62942 whole entry, the tested form may be a part) above
T2 sequence (P42345 2025-2114 W2101F): as the sequence (P42345 2025-2114 K2095P/T2098L/W2101F) above, with P71K, L74T counted along it
T2 sequence (P62942 whole entry, the tested form may be a part): as the sequence (P62942 whole entry, the tested form may be a part) above
T1 sequence (P42345 2025-2114 K2095P/T2098L/W2101F): as the sequence (P42345 2025-2114 K2095P/T2098L/W2101F) above
T1 sequence (P62942 whole entry, the tested form may be a part): as the sequence (P62942 whole entry, the tested form may be a part) above
T3 sequence (P42345 2025-2114 K2095T/T2098L): as the sequence (P42345 2025-2114 K2095P/T2098L/W2101F) above, with P71T, F77W counted along it
T3 sequence (P62942 2-108 partner): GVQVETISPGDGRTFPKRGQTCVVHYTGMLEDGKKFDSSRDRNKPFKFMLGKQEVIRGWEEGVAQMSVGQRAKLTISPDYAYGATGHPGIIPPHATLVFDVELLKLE
T5 sequence (P42345 2025-2114 K2095P/T2098L/W2101F): as the sequence (P42345 2025-2114 K2095P/T2098L/W2101F) above
T5 sequence (P62942 whole entry, further chain, the tested form may be a part): as the sequence (P62942 whole entry, the tested form may be a part) above

With “C20-(R or S)-methallylrapamycin [C20-MaRap]” the Kd ([1]; FRB*) was 3.1 nM, the EC50 ([1]; FRB*(PLF)-VP16, ±95% confidence intervals) was 3.1 ± 0.36 nM and the “binding to KTF” value [2] was “binds efficiently”. The EC50 ([2]; single mutation Trp2101 to Phe) was 9 nM, the “binding to the TLW mutant” value [3] was “inefficiently” and the “improvement of affinity of KLW over wild-type” value ([4]; KLW versus wild-type FRB) was “about 5 fold”. The EC50 ([4]; single mutation Thr2098 to Leu, read-out: affinity, KLW) was 22 nM, the “increase in GSK-3β kinase activity” value [5] was “over 7 fold” and the “kinase activity relative to wild-type cells” value [6] was “approximately 60%”.
